Measured values published in ChEMBL document CHEMBL5375944, “Discovery of Potent Agonists for the Predominant Variant of the Orphan MAS-Related G Protein-Coupled Receptor X4 (MRGPRX4)” (J Med Chem, 2023).
≈ marks a conversion by molar mass, not a printed value.

Tests used:
[1] = Agonist activity at MRGPRX4 83S in human LN229 glioblastoma cells assessed as change in intracellular calcium level by calcium mobilization assay; type: cell-based
[2] = Agonist activity at MRGPRX4 83L (unknown origin) expressed in human 1321N1 glioblastoma cells assessed as change in intracellular calcium level by calcium mobilization assay; type: cell-based
[3] = Agonist activity at MRGPRX4 83S (unknown origin) expressed in CHO-K1 cells assessed as induction of beta-arrestin recruitment measured after 90 mins by luminescence assay; type: cell-based; details: Homo sapiens, CHO-K1, 1.5 h
[4] = Agonist activity at MRGPRX4 83L (unknown origin) expressed in CHO cells assessed as induction of beta-arrestin recruitment measured after 90 mins by luminescence assay; type: cell-based; details: Homo sapiens, 1.5 h
[5] = biological target: G-protein coupled receptor 143 (Homo sapiens, UniProt P51810); test: Agonist activity at GPR143 (unknown origin) by beta-arrestin recruitment assay
Chain of G-protein coupled receptor 143 (P51810 whole entry): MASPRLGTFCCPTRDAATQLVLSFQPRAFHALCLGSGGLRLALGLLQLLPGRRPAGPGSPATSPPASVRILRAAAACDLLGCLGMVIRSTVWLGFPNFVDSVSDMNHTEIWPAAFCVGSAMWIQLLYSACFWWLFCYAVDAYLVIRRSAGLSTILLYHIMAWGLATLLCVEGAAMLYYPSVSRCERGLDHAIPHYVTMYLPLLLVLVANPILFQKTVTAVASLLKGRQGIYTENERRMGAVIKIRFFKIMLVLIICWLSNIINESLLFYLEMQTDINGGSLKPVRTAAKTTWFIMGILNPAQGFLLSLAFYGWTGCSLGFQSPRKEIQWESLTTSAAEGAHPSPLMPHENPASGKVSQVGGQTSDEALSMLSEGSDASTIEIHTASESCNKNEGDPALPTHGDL

[6] = biological target: Mas-related G-protein coupled receptor member X3 (Homo sapiens, UniProt Q96LB0); test: Agonist activity at MRGPRX3 (unknown origin) by beta-arrestin recruitment assay; type: functional
Chain of Mas-related G-protein coupled receptor member X3 (Q96LB0 whole entry): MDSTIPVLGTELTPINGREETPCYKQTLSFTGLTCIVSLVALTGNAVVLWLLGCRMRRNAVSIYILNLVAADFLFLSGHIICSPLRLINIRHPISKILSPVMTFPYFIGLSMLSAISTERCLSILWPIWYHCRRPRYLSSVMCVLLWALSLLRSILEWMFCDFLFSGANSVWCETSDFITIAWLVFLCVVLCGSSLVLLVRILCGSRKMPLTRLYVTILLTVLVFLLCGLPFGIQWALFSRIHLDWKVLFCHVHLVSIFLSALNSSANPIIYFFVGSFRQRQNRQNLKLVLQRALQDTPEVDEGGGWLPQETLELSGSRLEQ

[7] = biological target: Mas-related G-protein coupled receptor member X1 (Homo sapiens, UniProt Q96LB2); test: Agonist activity at MRGPRX1 (unknown origin) by beta-arrestin recruitment assay
Chain of Mas-related G-protein coupled receptor member X1 (Q96LB2 whole entry): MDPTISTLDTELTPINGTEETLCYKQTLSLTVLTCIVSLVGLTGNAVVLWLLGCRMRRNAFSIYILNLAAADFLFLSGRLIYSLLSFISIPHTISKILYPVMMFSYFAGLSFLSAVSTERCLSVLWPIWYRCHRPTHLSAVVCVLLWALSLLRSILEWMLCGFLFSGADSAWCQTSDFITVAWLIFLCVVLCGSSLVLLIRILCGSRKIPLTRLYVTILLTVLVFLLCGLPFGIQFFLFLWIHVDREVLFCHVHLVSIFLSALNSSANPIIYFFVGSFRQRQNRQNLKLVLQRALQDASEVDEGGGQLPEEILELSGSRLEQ

LN-229 = test: Cytotoxicity against human LN-229 glioblastoma cells assessed as cell viability upto 30 uM measured after 3 days by MTT assay; type: toxicity, cell-based; details: ln-229, 72 h, time 3 day
[8] = Metabolic stability of the compound in human liver microsomes assessed as half life at 1 uM in presence of NADPH by LC-MS analysis; type: ADME, Microsome
[9] = Kinetic solubility of compound in PBS at pH 7.4 incubated for 3 days; type: physicochemical; details: time 3 day, read-out: Kinetic_solubility
[10] = Agonist activity at MRGPRX4 83S in human LN229 glioblastoma cells assessed as change in intracellular calcium level at 10 uM by calcium mobilization assay relative to control
[11] = Agonist activity at MRGPRX4 83L (unknown origin) expressed in HEK293 cells co-expressing Gq assessed as change in intracellular calcium level by FLIPR assay; type: cell-based; details: Homo sapiens
[12] = Agonist activity at MRGPRX4 83L (unknown origin) expressed in human 1321N1 glioblastoma cells assessed as change in intracellular calcium level 10 uM by calcium mobilization assay relative to control
[13] = Agonist activity at MRGPRX4 83L (unknown origin) expressed in HEK293 cells co-expressing Galpha15 assessed as change in intracellular calcium level by FLIPR assay; type: cell-based; details: Homo sapiens
[14] = Agonist activity at MRGPRX4 83S (unknown origin) expressed in HEK293 cells co-expressing Gq assessed as change in intracellular calcium level by FLIPR assay; type: cell-based; details: Homo sapiens

| SMILES | EC50 [1] [µM] | EC50 [2] [µM] | EC50 [3] [µM] | EC50 [4] [µM] | further results |
| --- | --- | --- | --- | --- | --- |
| C#CCn1c(=O)c2[nH]c(C(C)Cc3ccccc3)nc2n(CCCCP(=O)(O)OCC)c1=O (configuration not stated) | > 10 | > 10 | > 10 | > 10 | – |
| CCn1c(=O)c2[nH]c(CCc3cccc(OC)c3)nc2n(CCCCP(=O)(O)O)c1=O | 0.214 | 3.8 | 1.19 | > 10 | – |
| C#CCn1c(=O)c2c(nc(/C=C/c3cccc(OC)c3)n2C)n(CCCO)c1=O | > 10 | – | – | – | – |
| C#CCn1c(=O)c2[nH]c(COc3ccccc3)nc2n(CCCCP(=O)(O)O)c1=O | > 10 | > 10 | 1.85 | > 10 | – |
| C#CCn1c(=O)c2c(nc(CCc3cccc(OC)c3)n2C)n(CCCOP(=O)(O)O)c1=O | 0.238 | 0.574 | 0.374 | > 10 | – |
| C#CCn1c(=O)c2c(nc(/C=C/c3cccc(OC)c3)n2C)n(CCCOP(=O)(O)O)c1=O | – | – | – | – | EC50 [5]: > 10 µM; EC50 [6]: > 10 µM; EC50 [7]: > 10 µM |
| C#CCn1c(=O)c2[nH]c(CCc3cccc(OC)c3)nc2n(CCCCP(=O)(OCC)OCC)c1=O | > 10 | > 10 | > 10 | > 10 | – |
| COc1cccc(CCc2nc3c([nH]2)c(=O)n(CC2CCC2)c(=O)n3CCCCP(=O)(O)O)c1 | 0.0599 | 1.6 | 0.0689 | > 10 | – |
| C#CCn1c(=O)c2[nH]c(CCc3cccc(OC)c3)nc2n(CCCCC(=O)O)c1=O | > 10 | > 10 | 6.72 | > 10 | – |
| C#CCn1c(=O)c2[nH]c(CCc3ccccc3)nc2n(CCCCP(=O)(O)O)c1=O | 0.134 | 3.25 | 0.399 | > 10 | – |
| C#CCn1c(=O)c2[nH]c([C@@H]3C[C@H]3c3ccccc3)nc2n(CCCCP(=O)(O)O)c1=O | > 10 | > 10 | > 10 | > 10 | – |
| C#CCn1c(=O)c2[nH]c(C(C)Cc3ccccc3)nc2n(CCCCP(=O)(O)O)c1=O (configuration not stated) | 0.0345 | 6.17 | 0.0277 | 3.94 | – |
| C#CCn1c(=O)c2[nH]c(CCc3cccc(OC)c3)nc2n(CCCCP(=O)(O)O)c1=O | 0.0112 | 0.435 | 0.032 | 5.71 | Activity (LN-229): Non-Toxic; half-life at 1 µM [8]: > 4.5 h; solubility kinetic at 72 h [9]: 218 µM (≈ 100 µg/mL) |
| O=C(O)[C@@H](Cc1ccccc1)NC(=O)C12CC3CC(CC(C3)C1)C2 | > 10 | 0.126 | 64.1 | 6.7 | Activity [10]: 1%; EC50 [11]: 0.581 µM |
| C#CCn1c(=O)c2c(nc(C#Cc3cccc(OC)c3)n2C)n(CCCOP(=O)(O)O)c1=O | > 10 | > 10 | > 10 | > 10 | – |
| C[C@H](CCC(=O)NCCS(=O)(=O)O)[C@H]1CC[C@H]2[C@@H]3CC[C@@H]4C[C@H](O)CC[C@]4(C)[C@H]3C[C@H](O)[C@]12C [TAURODEOXYCHOLIC ACID] | > 10 | > 10 | 54.5 | 55.7 | Activity [12]: 1%; Activity [10]: 6%; EC50 [11]: 14.1 µM |
| C#CCn1c(=O)c2[nH]c(CCc3cccc(OC)c3)nc2n(CCCO)c1=O | > 10 | > 10 | > 10 | > 10 | – |
| C#CCn1c(=O)c2[nH]c(/C=C/c3cccc(OC)c3)nc2n(CCCCP(=O)(O)O)c1=O | 0.0116 | > 10 | 0.2 | > 10 | – |
| C[C@H](CCC(=O)O)[C@H]1CC[C@H]2[C@@H]3CC[C@@H]4C[C@H](O)CC[C@]4(C)[C@H]3C[C@H](O)[C@]12C [DEOXYCHOLIC ACID] | 169 | 11.2 | 1.68 | 24.6 | EC50 [13]: 2.6 µM |
| CC(C)[C@H]1CC[C@H](C(=O)N[C@H](Cc2ccccc2)C(=O)O)CC1 [NATEGLINIDE] | > 10 | 0.198 | 28.4 | 4.09 | EC50 [14]: > 10 µM; Activity [10]: 0%; EC50 [11]: 4.72 µM |
| C#CCn1c(=O)c2[nH]c(CCc3cccc(OC)c3)nc2n(CCCCS(=O)(=O)O)c1=O | > 10 | > 10 | > 10 | > 10 | – |
| C[C@]12C[C@@H]3C[C@](C)(C1)C[C@@](C(=O)N[C@H](Cc1ccccc1)C(=O)O)(C3)C2 | 13.3 | 0.00656 | 3.98 | 0.548 | EC50 [14]: > 10 µM; EC50 [11]: 0.149 µM |
| C[C@H](CCC(=O)O)[C@H]1CC[C@H]2[C@@H]3[C@@H](O)C[C@@H]4C[C@H](O)CC[C@]4(C)[C@H]3CC[C@]12C [URSODIOL] | 47.5 | 41.1 | 3.27 | 33.8 | EC50 [13]: 4.93 µM |
| C#CCn1c(=O)c2c(nc(CCc3cccc(OC)c3)n2C)n(CCCCP(=O)(O)O)c1=O | 0.0192 | 0.333 | 0.03 | 6.28 | Activity (LN-229): Non-Toxic; half-life at 1 µM [8]: > 16 h |
| C#CCn1c(=O)c2[nH]c(CCc3cccc(OC)c3)nc2n(CCCOC(C)=O)c1=O | > 10 | > 10 | > 10 | > 10 | – |
| C#CCn1c(=O)c2c(nc(-c3cccc(OC)c3)n2C)n(CCCOP(=O)(O)O)c1=O | > 10 | > 10 | > 10 | > 10 | – |
